Measured values from US20120022000A1, “USE OF A PEPTIDE IN THE TREATMENT OR PREVENTION OF METASTASIS” (UNIVERSITE DE LAUSANNE, priority 2009, published 2012).
Marks after values point to notes of the source that are not given here.

Legend:
U2OS cells [1] = assay: Adhesion assay (trypsinization assay) with peptides; type: cell-based; conditions: for cell adherence (resistance to trypsin): U2OS cells, 8 hours (FIG. 4A)
Description: (a) U2OS cells were cultured until confluency and treated during 0 h, 1 h, 3 h, 8 h and 14 h with 13 μM TAT, 13 μM TAT-RasGAP317-326 or without treatment. The cells were then trypsinized during 5 minutes (or not trypsinized), washed with PBS and stained with GIEMSA. Four pictures were taken per plate using a Zeiss Axioplan 2 microscope equipped with a 10× objective and the number of cells per surface area was determined. Representative images are shown. The graph represents the number of cells per mm^2 (mean±95% CI of 3 independent experiments). Scale bar=100 μm. (b) Trypsinization assay on cancerous cell lines (U2OS, HeLa, 4T1, HCT116, SAOS) and non-cancerous cell lines (HEK293T and HaCaT). Cells were treated and analyzed as in panel (a). Values for control and TAT treatments are shown literally as they were too low to be seen on the graphs. (c) Reversibility of the TAT-RasGAP317-326 induced adhesion. Confluent U2OS cells were treated during 24 h with 13 μM TAT, 13 μM TAT-RasGAP317-326 or not treated. The cells were then washed and incubated in culture medium without peptides for the indicated periods of time. Cells were analyzed as in panel (a).
(§1) (a) RasGAP317-326 without cell-permeation sequences is not able to render cells resistant to trypsin. 300,000 U2OS cells were cultured overnight in 3.5 cm plates and then treated during 8 hours with the indicated peptides (the concentration of each peptide was 13 μM). The cells were then subjected to a trypsinization assay. (b) 2×10^6 HEK293T cells were cultured overnight in 10 cm plates and transfected with empty vector (pcDNA3) or vectors encoding HA-tagged versions of fragment N2 or the 317-326 sequence of RasGAP. One day later, the cells were subjected to a trypsinization test. Results in (a) and (b) correspond to the number of cells per mm2 (mean±95% CI of 3 independent experiments). Some values are shown literally as they were too low to be seen on the graphs.
5×10^5 cells were grown overnight and then incubated with peptides or transfected (see the figures for the specific conditions used). The treated cells were washed with phosphate buffered saline (PBS) and then incubated with trypsin-EDTA solution (Sigma; catalog no: T3924; […]) during 5 minutes. The plates were gently hand-rocked 2 and 4 minute after trypsin addition. Detached cells were removed with a PBS wash and the remaining attached cells were dried, incubated in ethanol during 10 minutes, dried again, and finally stained with GIEMSA (Invitrogen) for 45 minutes. Four and six phase contrast pictures were taken (Zeiss Axioplan, 10× objective) for 3.5 cm-plates and 10 cm-plates, respectively. The number of cells per mm2 was then determined.

trypsin = target: T1, trypsin (Sus scrofa, UniProt P00761); assay: Trypsin pre-incubated with peptide, cell detachment; conditions: trypsin pre-incubated one hour with peptide; data not shown
T1 construct: purchased Sigma T3924
From the text: TAT-RasGAP317-326 could increase adherence and block migration by acting in the cellular environment or at the surface of cells. Alternatively, these effects could be induced only once the peptide has entered cells. The following evidence favors the second possibility.

[2] = peptide by itself; Michod et al., 2004; 2009; cited from earlier work
U2OS cells [3] = assay: Proliferation assay; type: cell-based; conditions: 13 μM (FIG. 3)
Description: 30,000 U2OS cells were seeded in 3.5 cm-plates. The cell number in the plates were then determined 24 and 48 hours later as described in FIG. 1, panel (a). The graph represents the number of cells per mm2 (mean±95% CI of 3 independent experiments). No significant difference between the growth curves could be detected (repeated measures ANOVA). 30,000 U2OS cells were seeded in 3.5 cm plates and cultured overnight. The cells were either treated with 13 μM TAT, 13 μM TAT-RasGAP317-326 or left untreated. Pictures were taken after 0 h, 24 h and 72 hours and cells were counted. The number of cells was then adjusted per mm2.

4T1-luc2 cells = assay: In vivo metastases model (orthotopic mammary fatpad 4T1-luc2 tumor); parameters: species or system nude mice
Description: 100,000 4T1-luc2 cells were injected orthotopically into the mammary fatpad of nude mice. Four groups of eight nude mice were then treated with or without 0.16 mg TAT-RasGAP317-326 per kg of mouse on the first, third and fifth day of the week during 28 days. The tumor volumes were measured with a caliper at the indicated time points and were calculated according to the formula described in the “MATERIAL AND METHODS” section. A repeated measure ANOVA was performed and no differences were found between the two groups.
Nude mice were injected into the mammary fatpads with 100,000 murine mammary cancer 4T1-luc2 cells that constitutively express the firefly luciferase. For the injection, the mouse skin was incised in the pelvic area to reach the fatpads, and the wounds were closed after injection with surgery hooks. The cells were injected in 100 μl Matrigel (BD Biosciences, 20% in PBS). Tumor volumes were quantified as follow: The tumor width and length were measured with a caliper and the tumor volume was calculated according to the formula tumor volume [mm3]=(12*L)*π/6, where 1 is the smallest measure between the width and the length (in mm), and L the longest (in mm) In order to quantify metastases, the mice were injected i.p. with 200 μl D-Luciferin Firefly (15 mg/ml in PBS) in PBS, Biosynth, No. L-8220) and luminescence was measured 10 minutes afterwards with an IVIS Lumina 2 apparatus (Xenogen). Metastases were assessed at the indicated time points in vivo and at the last day (28 days after tumor injection) ex vivo for the following organs: lung, liver and axillary and brachial lymph nodes. For the ex vivo measurements, the mice were injected with luciferin as described above, and sacrificed 10 minutes later to excise organs. The light emitted by the organs was measured in a Luciferin bath (150 μg/ml D-Luciferin Firefly in 2 ml PBS per organ). Luminescence is presented as the number of photons emitted per second (p/s).
28 days after cancer cells injection, the same mice than those in FIG. 5 were subjected to ex vivo metastases luminescence measurements. The lung, liver, axillary and brachial lymph node (LN) metastases were quantified by luminescence after luciferine i.p. injection. Organs emitting light were considered as bearing metastases. The asterisk denotes a significant difference against the control treatment (0 mg/kg TAT-RasGAP317-326) (p=0.0238 after an Fisher's Exact Test).

U2OS cells [4] = assay: Immuno-cytochemistry of actin and focal adhesions (phospho-FAK); type: cell-based; conditions: 13 μM over-night (FIG. 6)
Description: FIG. 6: Actin and focal adhesion changes in TAT-RasGAP317-326-treated cells. 100,000 U2OS cells were cultured on coverslips for 24 hours and then treated with 13 μM TAT-RasGAP317-326, 13 μM TAT or left untreated (control) over-night. The cells were then fixed with 2% PFA, and peinieabilized with PBS Triton-X100 0.2%. The nuclei were stained with Hoechst 33342 and actin with Alexa Fluor 488 phalloidin. Focal adhesions were stained with an anti-phospho Tyr397 FAK. Representative images are shown.
100,000 U2OS cells were grown on coverslips overnight, and then treated as described in the figures. The cells were then fixed and the nuclei were stained in PBS containing 2% paraformaldehyde (weight/vol) (Acros Organics, catalog no: 30525-89-4) and 10 μg/ml Hoechst 33342 (Molecular Probe) for 15 minutes. The following steps were performed at room temperature in the absence of light. The cells were washed twice in PBS, permeabilized 10 minutes in PBS, 0.2% Triton X-100, washed twice in PBS, neutralized 15 minutes in DMEM, 10% FBS, and washed twice in PBS. The coverslips were then incubated 20 minutes in PBS 1.65 μM Alexa Fluor 488 phalloidin (Invitrogen, A12379). After a rapid wash in PBS, they were incubated with a polyclonal rabbit anti-phospho-FAK (tyrosine 397) primary antibody (1:50 dilution in DMEM, 10% FBS; Cell Signaling, catalog no: 3283) for 1 hour. After a rapid wash in PBS, the coverslips were incubated 1 hour with a donkey CyTM-anti-rabbit secondary antibody (1:500 dilution in DMEM, 10% FBS; Jackson ImmunoResearch, no. 711-165-152). The slides were finally washed twice in PBS and mounted in Vectashield mounting medium (Vector laboratories Inc.). Images were taken with a Zeiss Axioplan 2 imaging microscope.

[5] = tested on: U2OS, HeLa, HCT116 and HaCaT; assay: Wound-healing experiment; type: cell-based; conditions: 13 μM peptide, HCT116, HaCaT (FIG. 2)
Description: Cells were cultured until confluency and a wound in the cell layer was done with a yellow tip. The cells were then left untreated or incubated 24 hours with 13 μM of TAT or TAT-RasGAP317-326 peptides. Pictures were taken just after wounding (0 hour) and at the indicated times. Results correspond to the width of the wound (mean±95% CI of 4 independent experiments). Asterisks denote significant differences between the control and the other conditions at a given time point (t-test after Bonferroni correction). Bar=100 μm. Cells were grown until confluency and a wound in the cell layer was done with a yellow tip. The cells were washed once with PBS to remove debris and then left untreated or incubated 24 hours and 48 hours with 13 μM of TAT or TAT-RasGAP317-326 peptides (in DMEM+10% FBS). Pictures were taken just after wounding (0 h) and at the indicated times. The wound widths were measured as described earlier (Bulat et al., 2009).

HEK293T cells = assay: Adhesion assay (trypsinization test) after transfection; type: cell-based; conditions: HEK293T cells transfected with HA-tagged constructs, one day (FIG. 4B)
Description: as §1
2×10^6 HEK293T cells were cultured overnight in 10 cm-culture plates and transfected with 18 μg of the plasmid of interest and 2 μg of pEGFP-C1 (a green fluorescent protein-encoding plasmid from Clontech) using the calcium-phosphate method (Jordan et al., 1996). Briefly, plasmids were diluted in 450 μl water and mixed with 50 μl CaCl2 2.5M during 30 minutes. […]
5×10^5 cells were grown overnight and then incubated with peptides or transfected (see the figures for the specific conditions used). […] The number of cells per mm2 was then determined.

[6] = 0.160 mg/kg, 28 days after cell injection, ex vivo luminescence

T1 sequence (P00761 9-231): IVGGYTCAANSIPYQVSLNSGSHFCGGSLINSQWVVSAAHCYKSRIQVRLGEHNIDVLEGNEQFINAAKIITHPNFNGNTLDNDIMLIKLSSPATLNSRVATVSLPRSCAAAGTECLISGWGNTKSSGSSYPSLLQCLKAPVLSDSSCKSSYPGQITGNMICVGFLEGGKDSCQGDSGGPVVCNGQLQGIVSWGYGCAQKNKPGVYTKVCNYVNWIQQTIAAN

Molecule: WMWVTNLRTD (listed as Homo sapiens) [RasGAP317-326]
- cell adherence (resistance to trypsin) (U2OS cells [1]; 13 μM peptide): unable to increase cell adherence

Molecule: RRRRRRRRRGGWMWVTNLRTD [R9—RasGAP317-326, RasGAP317-326 conjugated to a 9 arginine peptide]
- cell adherence (resistance to trypsin) (U2OS cells [1]; 13 μM peptide): functions as a cell adherence promoting agent

Molecule: GRKKRRQRRRGGWMWVTNLRTD [TAT-RasGAP317-326, RasGAP-derived peptide conjugated to HIV-TAT48-57 through two glycine residues]
- ability to increase cell adherence when transcription or translation is blocked (U2OS cells [1]; 1 μg/ml actinomycin D or 30 μg/ml cycloheximide, data not shown): None of the drugs affected the ability
- cell adhesion (U2OS cells [1]; 13 μM peptide, trypsinization 5 minutes, U2OS and other cell lines (FIG. 1)): induces cell adhesion
- trypsin inhibitory effect (ability of trypsin to detach cells) (trypsin): did not decrease the ability of trypsin to detach cells
- cell survival [2]: does not, by itself, affect cell survival
- cell population growth (U2OS cells [3]): does not modulate cell population growth
- primary tumor growth (4T1-luc2 cells; 0.16 mg per kg on first, third and fifth day of the week during 28 days, nude mice (FIG. 5)): does not affect primary tumor growth
- mice with metastases in the indicated organs vs total number of mice: Liver (4T1-luc2 cells; [6]): 3/8
- mice with metastases in the indicated organs vs total number of mice: Lung (4T1-luc2 cells; [6]): 2/8*
- mice with metastases in the indicated organs vs total number of mice: LN (4T1-luc2 cells; 0.160 mg/kg, 28 days after cell injection, ex vivo luminescence, axillary and brachial lymph nodes): 3/8
- formation of metastases in other organs (4T1-luc2 cells; 28 days, liver, lymph nodes): apparently no effect
- lung metastases (4T1-luc2 cells; 28 days, p=0.024, Fisher's Exact Test): significant decrease in lung metastases
- actin and focal adhesion localization (U2OS cells [4]): major changes in actin and focal adhesion localization
- cortical actin stress fibers (U2OS cells [4]): strong increase
- location of focal adhesions (U2OS cells [4]): mainly found at the cell's periphery
- ventral stress fibers (U2OS cells [4]): almost completely disappeared
- ability of the cells to fill wounds (cell migration) [5]: blocked the ability of the cells to fill wounds

Molecule: GRKKRRQRRR [TAT, cell-permeable carrier peptide used as control, reference compound]
- actin and focal adhesion localization (U2OS cells [4]): did not exhibit any difference compared to untreated cells

B1: RasGAP Fragment N2: HA-tagged human RasGAP amino acid 158-455 sequence, expressed from plasmid HA-N2.dn3 (protein, UniProt P20936 158-455, looked up, fragment)
chain: SLDGPEYEEEEVAIPLTAPPTNQWYHGKLDRTIAEERLRQAGKSGSYLIRESDRRPGSFVLSFLSQMNVVNHFRIIAMCGDYYIGGRRFSSLSDLIGYYSHVSCLLKGEKLLYPVAPPEPVEDRRRVRAILPYTKVPDTDEISFLKGDMFIVHNELEDGWMWVTNLRTDEQGLIVEDLVEEVGREEDPHEGKIWFHGKISKQEAYNLLMTVGQVCSFLVRPSDNTPGDYSLYFRTNENIQRFKICPTPNNQFMMGGRYYNSIGDIIDHYRKEQIVEGYYLKEPVPMQDQEQVLNDTVD
modifications: HA tag
- cell adherence after transfection (HEK293T cells): Increases Cell Adherence
